#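 Method: 48-hour compound exposure of cells in 96-well plates, five concentrations, linear interpolation of endpoints. Here, GI50 denotes the concentration required for 50% inhibition of growth. TGI denotes the concentration required for complete inhibition of growth.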
# Tests used:
# Assay in all cases: NCI-60 cell line screen, 48 h
# SF-295 CNS = tested on: SF-295 CNS
# RXF 393 renal = tested on: RXF 393 renal
# MDA-MB-435 = tested on: MDA-MB-435
# MCF7 breast = tested on: MCF7 breast
# SK-OV-3 ovarian = tested on: SK-OV-3 ovarian
# CAKI-1 renal = tested on: CAKI-1 renal
# COLO 205 colon = tested on: COLO 205 colon
# 786-0 renal = tested on: 786-0 renal
# SK-MEL-28 melanoma = tested on: SK-MEL-28 melanoma
# HCT-116 colon = tested on: HCT-116 colon
# U251 CNS = tested on: U251 CNS
# LOX IMVI melanoma = tested on: LOX IMVI melanoma
# IGROV1 ovarian = tested on: IGROV1 ovarian
# SNB-19 CNS = tested on: SNB-19 CNS
# HL-60(TB) leukemia = tested on: HL-60(TB) leukemia
# SK-MEL-5 melanoma = tested on: SK-MEL-5 melanoma
# T-47D breast = tested on: T-47D breast
# M14 melanoma = tested on: M14 melanoma
# K-562 leukemia = tested on: K-562 leukemia
# OVCAR-4 ovarian = tested on: OVCAR-4 ovarian
# NCI-H23 lung = tested on: NCI-H23 lung
# A549 NSCLC = tested on: A549 NSCLC
# SK-MEL-2 melanoma = tested on: SK-MEL-2 melanoma
# CCRF-CEM leukemia = tested on: CCRF-CEM leukemia
# HCT-15 colon = tested on: HCT-15 colon
# SF-268 CNS = tested on: SF-268 CNS
# NCI-H460 lung = tested on: NCI-H460 lung
# OVCAR-8 ovarian = tested on: OVCAR-8 ovarian
# MDA-MB-231 breast = tested on: MDA-MB-231 breast
# NCI-H522 lung = tested on: NCI-H522 lung
# RPMI-8226 leukemia = tested on: RPMI-8226 leukemia
# NCI/ADR-RES ovarian = tested on: NCI/ADR-RES ovarian
# HT29 colon = tested on: HT29 colon
# TK-10 renal = tested on: TK-10 renal
# SF-539 CNS = tested on: SF-539 CNS
# KM12 colon = tested on: KM12 colon
# SW-620 colon = tested on: SW-620 colon
# NCI-H226 lung = tested on: NCI-H226 lung
# MALME-3M melanoma = tested on: MALME-3M melanoma
# UO-31 renal = tested on: UO-31 renal
# ACHN renal = tested on: ACHN renal
# SNB-75 CNS = tested on: SNB-75 CNS
# UACC-257 melanoma = tested on: UACC-257 melanoma
# SN12C renal = tested on: SN12C renal
# EKVX NSCLC = tested on: EKVX NSCLC
# HCC-2998 colon = tested on: HCC-2998 colon
# PC-3 prostate = tested on: PC-3 prostate
# BT-549 breast = tested on: BT-549 breast
# HOP-62 NSCLC = tested on: HOP-62 NSCLC
# MOLT-4 leukemia = tested on: MOLT-4 leukemia
# HS 578T breast = tested on: HS 578T breast
# UACC-62 melanoma = tested on: UACC-62 melanoma
# DU-145 prostate = tested on: DU-145 prostate
# OVCAR-5 ovarian = tested on: OVCAR-5 ovarian
# OVCAR-3 ovarian = tested on: OVCAR-3 ovarian
compound,measurement,setting,value
C[C@@H]1CC[C@@H]2[C@@H](C)C[C@H]3[C@@H]4C(C)(C)OC(=O)[C@]4(C)C(=O)[C@@]23C1=O,TGI,SF-295 CNS,> 100 µM
same,GI50,RXF 393 renal,> 100 µM
same,TGI,RXF 393 renal,> 100 µM
same,TGI,MDA-MB-435,> 100 µM
same,TGI,MCF7 breast,> 100 µM
same,TGI,SK-OV-3 ovarian,> 100 µM
same,TGI,CAKI-1 renal,> 100 µM
same,TGI,COLO 205 colon,> 100 µM
same,TGI,786-0 renal,> 100 µM
same,TGI,SK-MEL-28 melanoma,> 100 µM
same,TGI,HCT-116 colon,> 100 µM
same,GI50,U251 CNS,31.9 µM
same,TGI,U251 CNS,> 100 µM
same,TGI,LOX IMVI melanoma,> 100 µM
same,TGI,IGROV1 ovarian,> 100 µM
same,TGI,SNB-19 CNS,> 100 µM
same,TGI,HL-60(TB) leukemia,> 100 µM
same,TGI,SK-MEL-5 melanoma,> 100 µM
same,GI50,T-47D breast,65.3 µM
same,TGI,T-47D breast,> 100 µM
same,TGI,M14 melanoma,> 100 µM
same,TGI,K-562 leukemia,> 100 µM
same,TGI,OVCAR-4 ovarian,> 100 µM
same,TGI,NCI-H23 lung,> 100 µM
same,TGI,A549 NSCLC,> 100 µM
same,GI50,SK-MEL-2 melanoma,> 100 µM
same,TGI,SK-MEL-2 melanoma,> 100 µM
same,TGI,CCRF-CEM leukemia,> 100 µM
same,GI50,HCT-15 colon,16.4 µM
same,TGI,HCT-15 colon,> 100 µM
same,TGI,SF-268 CNS,> 100 µM
same,TGI,NCI-H460 lung,> 100 µM
same,TGI,OVCAR-8 ovarian,> 100 µM
same,GI50,MDA-MB-231 breast,> 100 µM
same,TGI,MDA-MB-231 breast,> 100 µM
same,GI50,NCI-H522 lung,> 100 µM
same,TGI,NCI-H522 lung,> 100 µM
same,TGI,RPMI-8226 leukemia,> 100 µM
same,TGI,NCI/ADR-RES ovarian,> 100 µM
same,TGI,HT29 colon,> 100 µM
same,TGI,TK-10 renal,> 100 µM
same,TGI,SF-539 CNS,> 100 µM
same,TGI,KM12 colon,> 100 µM
same,TGI,SW-620 colon,> 100 µM
same,TGI,NCI-H226 lung,> 100 µM
same,TGI,MALME-3M melanoma,> 100 µM
same,GI50,UO-31 renal,> 100 µM
same,TGI,UO-31 renal,> 100 µM
same,TGI,ACHN renal,> 100 µM
same,TGI,SNB-75 CNS,> 100 µM
same,TGI,UACC-257 melanoma,> 100 µM
same,TGI,SN12C renal,> 100 µM
same,TGI,EKVX NSCLC,> 100 µM
same,TGI,HCC-2998 colon,> 100 µM
same,GI50,PC-3 prostate,> 100 µM
same,TGI,PC-3 prostate,> 100 µM
same,TGI,BT-549 breast,> 100 µM
same,TGI,HOP-62 NSCLC,> 100 µM
same,TGI,MOLT-4 leukemia,> 100 µM
same,TGI,HS 578T breast,> 100 µM
same,GI50,UACC-62 melanoma,70 µM
same,TGI,UACC-62 melanoma,> 100 µM
same,TGI,DU-145 prostate,> 100 µM
same,TGI,OVCAR-5 ovarian,> 100 µM
same,GI50,OVCAR-3 ovarian,75.9 µM
same,TGI,OVCAR-3 ovarian,> 100 µM

# From PubChem BioAssay (NCI)
